Experimental data: ChEMBL document CHEMBL1201862, “PubChem BioAssay data set” (2004)
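Growth conditions: 96-well plates. Treatment: test compound, 48 hours, 5 concentrations. Analysis: linear interpolation between bracketing concentrations; unreached endpoints set to highest concentration. Abbreviation: GI50, concentration required for 50% inhibition of growth.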 Active and inactive are the calls of the source. No stated cut-off is given here; in the data, active = GI50 up to about 1.1 µM and inactive = higher.

How the values were obtained:
Experiment in all cases: NCI anticancer screen, dose series, 48 h
SK-MEL-28 = system: SK-MEL-28
SNB-75 = system: SNB-75
NCI-H522 = system: NCI-H522
OVCAR-3 = system: OVCAR-3
PC-3 = system: PC-3
NCI-H460 = system: NCI-H460
T47D = system: T47D
EKVX = system: EKVX
SK-MEL-2 = system: SK-MEL-2
SK-MEL-5 = system: SK-MEL-5
Hs-578T = system: Hs-578T
SF-268 = system: SF-268
MDA-MB-231 = system: MDA-MB-231
UACC-62 = system: UACC-62
UO-31 = system: UO-31
SF-539 = system: SF-539
HCC 2998 = system: HCC 2998
OVCAR-8 = system: OVCAR-8
SN12C = system: SN12C
HCT-15 = system: HCT-15

| Compound | GI50 (SK-MEL-28) | GI50 (SNB-75) | GI50 (NCI-H522) | GI50 (OVCAR-3) | GI50 (PC-3) | GI50 (NCI-H460) | GI50 (T47D) | GI50 (EKVX) | GI50 (SK-MEL-2) | GI50 (SK-MEL-5) | GI50 (Hs-578T) | GI50 (SF-268) | GI50 (MDA-MB-231) | GI50 (UACC-62) | GI50 (UO-31) | GI50 (SF-539) | GI50 (HCC 2998) | GI50 (OVCAR-8) | GI50 (SN12C) | GI50 (HCT-15) |
| --- | --- | --- | --- | --- | --- | --- | --- | --- | --- | --- | --- | --- | --- | --- | --- | --- | --- | --- | --- | --- |
| CCOc1cccc(-c2cc(O)c3cc4c(cc3n2)OCO4)c1 | 1.66 µM (inactive) | 0.0948 µM (active) | 0.0914 µM (active) | 0.182 µM (active) | 0.112 µM (active) | 0.318 µM (active) | 54.7 µM (inactive) | 10.5 µM (inactive) | 0.191 µM (active) | 0.0505 µM (active) | 0.163 µM (active) | 0.466 µM (active) | 0.243 µM (active) | 0.043 µM (active) | 0.339 µM (active) | 0.13 µM (active) | 0.239 µM (active) | 0.265 µM (active) | 0.191 µM (active) | 0.189 µM |
| CC1(C)CC[C@]2(C(=O)O)CC[C@]3(C)C(=CCC4=C5C[C@H](O)[C@H](O)[C@@](C)(CO)[C@@]5(C)CC[C@]43C)[C@@H]2C1 | > 100 µM (inactive) | 26.7 µM (inactive) | 46.2 µM (inactive) | > 100 µM (inactive) | 59.3 µM (inactive) | 30.4 µM (inactive) | 28.4 µM (inactive) | 51.5 µM (inactive) | 80.5 µM (inactive) | 22.9 µM (inactive) | 39.9 µM (inactive) | 51.4 µM (inactive) | > 100 µM (inactive) | 46 µM (inactive) | 47.1 µM (inactive) | 56.9 µM (inactive) | 24 µM (inactive) | 44.3 µM (inactive) | 39.6 µM (inactive) | 38.9 µM |
| Cc1c(C)c(S(=O)(=O)N(CCCCN)OCCCN)c(C)c2c1OC(C)(C)CC2 | 19.6 µM (inactive) | 13.8 µM (inactive) | 13.1 µM (inactive) | 13.3 µM (inactive) | 5.47 µM (inactive) | 12.9 µM (inactive) | 23.7 µM (inactive) | 16 µM (inactive) | 11.1 µM (inactive) | 33 µM (inactive) | 13.2 µM (inactive) | 15.4 µM (inactive) | 21.7 µM (inactive) | 20.7 µM (inactive) | 19.4 µM (inactive) | 24 µM (inactive) | 6.08 µM (inactive) | 18.7 µM (inactive) | 29.6 µM (inactive) | 21.5 µM |
| COc1cc(C2c3cc4c(cc3OC(N3CCCCC3)C2C)OCO4)cc(OC)c1O (stereo not given) | 9.89 µM (inactive) | 2.96 µM (inactive) | 3.67 µM (inactive) | 6.12 µM (inactive) | 7.91 µM (inactive) | 6.64 µM (inactive) | 11.7 µM (inactive) | 26.1 µM (inactive) | 7.73 µM (inactive) | 5.7 µM (inactive) | 7.53 µM (inactive) | 13.8 µM (inactive) | 9.38 µM (inactive) | 4.23 µM (inactive) | 15 µM (inactive) | 9.64 µM (inactive) | 12.2 µM (inactive) | 13.4 µM (inactive) | 11.4 µM (inactive) | 11.6 µM |
| C=CC[C@@]1([C@H](C=C)COCc2ccc(OC)cc2)CC[C@]2(C)OC(C)(C)[C@@H](c3ccccc3)N2C1=S | 57.1 µM (inactive) | 60.1 µM (inactive) | 20.9 µM (inactive) | 59.4 µM (inactive) | 31.4 µM (inactive) | 44.4 µM (inactive) | 37.3 µM (inactive) | 26.2 µM (inactive) | 23.5 µM (inactive) | 25.2 µM (inactive) | 52.2 µM (inactive) | 53.5 µM (inactive) | 46.2 µM (inactive) | 28.2 µM (inactive) | > 100 µM (inactive) | 95.3 µM (inactive) | 44.8 µM (inactive) | 48.5 µM (inactive) | 62.1 µM (inactive) | 81.5 µM |
| OCCN1CCN(c2nc(N3CCCC3)c3nc(Cl)c(NCc4ccccc4)nc3n2)CC1 | 4.09 µM (inactive) | 3.27 µM (inactive) | 5.04 µM (inactive) | 8.02 µM (inactive) | 9.27 µM (inactive) | 5.58 µM (inactive) | 5.32 µM (inactive) | 11.3 µM (inactive) | 6.92 µM (inactive) | 3.51 µM (inactive) | 8.61 µM (inactive) | 8.85 µM (inactive) | 9.82 µM (inactive) | 4.65 µM (inactive) | 4.89 µM (inactive) | 5.81 µM (inactive) | 1.93 µM (inactive) | 8.77 µM (inactive) | 10.4 µM (inactive) | 2.84 µM |
| Cc1ccc2c(O)cc(-c3cccs3)nc2n1 | 7.33 µM (inactive) | 10.1 µM (inactive) | 4.58 µM (inactive) | 14.3 µM (inactive) | 11 µM (inactive) | 5.08 µM (inactive) | 6.64 µM (inactive) | 57 µM (inactive) | > 25.9 µM (inactive) | 4.72 µM (inactive) | 11.6 µM (inactive) | 49.8 µM (inactive) | > 72.6 µM (inactive) | 9.04 µM (inactive) | 8.61 µM (inactive) | 8.49 µM (inactive) | 12.9 µM (inactive) | 18.2 µM (inactive) | 19.1 µM (inactive) | 3.78 µM |
| O=C(C[n+]1ccc2ccccc2c1)c1ccc2ccc3ccccc3c2c1 | 2.12 µM (inactive) | 5.85 µM (inactive) | 6.38 µM (inactive) | 4.15 µM (inactive) | 2.84 µM (inactive) | 0.741 µM (active) | 4.74 µM (inactive) | 6.27 µM (inactive) | 4.56 µM (inactive) | 3.03 µM (inactive) | 8.32 µM (inactive) | 4.52 µM (inactive) | 1.28 µM (inactive) | 2.99 µM (inactive) | 4.69 µM (inactive) | 0.483 µM (active) | 1.66 µM (inactive) | 3.21 µM (inactive) | 1.91 µM (inactive) | 5.07 µM |
| O=C1C=C(Br)C(=O)C12CCc1ccccc12 (stereo not given) | 12.2 µM (inactive) | 13.6 µM (inactive) | 3.36 µM (inactive) | 18.5 µM (inactive) | 17.7 µM (inactive) | 22.6 µM (inactive) | 17.8 µM (inactive) | 25.4 µM (inactive) | 19.6 µM (inactive) | 19.7 µM (inactive) | 35.3 µM (inactive) | 22.3 µM (inactive) | 28.4 µM (inactive) | 16.8 µM (inactive) | 18.5 µM (inactive) | 17.4 µM (inactive) | 22.3 µM (inactive) | 14.9 µM (inactive) | 17.3 µM (inactive) | 7.53 µM |
